Measured values as given in ChEMBL document CHEMBL1949629, “Discovery of a second generation agonist of the orphan G-protein coupled receptor GPR119 with an improved profile” (Bioorg Med Chem Lett, 2012).
Values after ≈ are worked out from the molar mass of the structure shown. Active and inactive are the calls of the source. No cut-off for these calls is given here.

What was measured:
[1] = Solubility in 40% HPbetaCD after 24 hrs; format: physicochemical
[2] = Solubility in 20% HPbetaCD after 24 hrs; format: physicochemical
[3] = Mean residence time in Beagle dog at 7.85 mg/kg, po; format: ADME, organism-based, Canis lupus familiaris; parameters: dose 7.85 mg/kg, route oral; settings: in vivo
[4] = Tmax in Sprague-Dawley rat at 10 mg/kg, po; format: ADME, organism-based; parameters: dose 10 mg/kg, route oral; settings: in vivo
[5] = Mean residence time in Sprague-Dawley rat at 10 mg/kg, po; format: ADME, organism-based; parameters: dose 10 mg/kg, route oral; settings: in vivo
[6] = Tmax in C57Bl mouse at 10 mg/kg, po; format: ADME, organism-based; parameters: dose 10 mg/kg, route oral; settings: in vivo
Canis familiaris [7] = assay: Toxicity in dog assessed as developmental abnormality dosed for 7 days; format: organism-based, Canis lupus familiaris; settings: in vivo, 168 h
[8] = AUC (0 to infinity) in C57Bl mouse at 10 mg/kg, po; format: ADME, organism-based; parameters: time infinity, dose 10 mg/kg, route oral; settings: plasma
[9] = Mean residence time in C57Bl mouse at 10 mg/kg, po; format: ADME, organism-based; parameters: dose 10 mg/kg, route oral; settings: in vivo
Rattus norvegicus [10] = assay: Drug metabolism in po dosed rat assessed as isopropyl 2-hydroxy-4-(5-methoxy-6-(2-methyl-6-(methylsulfonyl)pyridin-3-ylamino)pyrimidin-4-yloxy)piperidine-1-carboxylate formation; format: ADME, organism-based; settings: in vivo
[11] = Elimination half life in rat; settings: in vivo
Rattus norvegicus [12] = assay: Drug concentration in Sprague-Dawley rat measured at initiation of the oral glucose tolerance test at 3 mg/kg; format: ADME, organism-based; parameters: dose 3 mg/kg, route oral; settings: in vivo
[13] = Solubility in water at pH 7; format: physicochemical; settings: buffer
Cynomolgus monkey [14] = assay: Drug concentration in cynomolgus monkey measured at initiation of the oral glucose tolerance test at 3 mg/kg; format: ADME, organism-based, Macaca fascicularis; parameters: dose 3 mg/kg, route oral; settings: in vivo
[15] = Half life in rat liver microsomes; format: ADME, Microsome
[16] = Elimination half life in dog; settings: in vivo
Rattus norvegicus [17] = assay: Drug metabolism in po dosed rat assessed as 5-methoxy-N-(2-methyl-6-(methylsulfonyl)pyridin-3-yl)-6-(piperidin-4-yloxy)pyrimidin-4-amine formation; format: ADME, organism-based; settings: in vivo
[18] = Half life in human liver microsomes; format: ADME, Microsome
[19] = Clearance in iv dosed Sprague-Dawley rat; format: ADME, organism-based; settings: in vivo
[20] = Tmax in cynomolgus monkey at 10 mg/kg, po; format: ADME, organism-based, Macaca fascicularis; parameters: dose 10 mg/kg, route oral; settings: in vivo
[21] = Clearance in iv dosed Cynomolgus monkey; format: ADME, organism-based, Macaca fascicularis; settings: in vivo
Cavia porcellus [22] = assay: Toxicity in guinea pig assessed as change in ECG at 5 mg/kg, iv; format: organism-based; parameters: dose 5 mg/kg, route intravenous; settings: in vivo
[23] = Clearance in iv dosed Beagle dog; format: ADME, organism-based, Canis lupus familiaris; settings: in vivo
[24] = Permeability from apical to basolateral side of human Caco2 cells; format: ADME, cell-based; settings: Caco-2, read-out: permeability
Rattus norvegicus [25] = assay: Toxicity in rat assessed as developmental abnormality dosed for 14 days; format: organism-based; settings: in vivo, 336 h
[26] = Tmax in Beagle dog at 7.85 mg/kg, po; format: ADME, organism-based, Canis lupus familiaris; parameters: dose 7.85 mg/kg, route oral; settings: in vivo
[27] = Cmax in C57Bl mouse at 10 mg/kg, po; format: ADME, organism-based; parameters: dose 10 mg/kg, route oral; settings: in vivo
Rattus norvegicus [28] = assay: Drug concentration in ZDF rat measured at initiation of the oral glucose tolerance test at 3 mg/kg; format: ADME, organism-based; parameters: dose 3 mg/kg, route oral; settings: in vivo
[29] = Mean residence time in cynomolgus monkey at 10 mg/kg, po; format: ADME, organism-based, Macaca fascicularis; parameters: dose 10 mg/kg, route oral; settings: in vivo
[30] = Cmax in cynomolgus monkey at 10 mg/kg, po; format: ADME, organism-based, Macaca fascicularis; parameters: dose 10 mg/kg, route oral; settings: in vivo
Cynomolgus monkey [31] = assay: Antidiabetic activity in cynomolgus monkey assessed as blood glucose AUC at 3 mg/kg administered 60 mins prior glucose challenge by oral glucose tolerance test relative to vehicle treated control; format: functional, Macaca fascicularis
Cytochrome P450 2C9 = Cytochrome P450 2C9 (Homo sapiens, UniProt P11712); assay: Inhibition of CYP2C9; format: ADME
[32] = AUC (0 to infinity) in Beagle dog at 7.85 mg/kg, po; format: ADME, organism-based, Canis lupus familiaris; parameters: time infinity, dose 7.85 mg/kg, route oral; settings: plasma
Mus musculus [33] = assay: Antidiabetic activity in fasted C57bl/6j mouse assessed as reduction in AUC of glucose at 1 mg/kg, po administered 30 mins prior glucose challenge by oral glucose tolerance test; format: functional, organism-based; parameters: dose 1 mg/kg
[34] = Half life in C57Bl mouse at 10 mg/kg, po; settings: in vivo
in vivo = settings: beagle, dog, po, 7.85 mg/kg
Description: Half life in Beagle dog at 7.85 mg/kg, po

[35] = Half life in Sprague-Dawley rat at 10 mg/kg, po; settings: in vivo
Rattus norvegicus [36] = assay: Drug metabolism in po dosed rat assessed as 5-methoxy-6-(2-methyl-6-(methylsulfonyl)pyridin-3-ylamino)pyrimidin-4-ol formation; format: ADME, organism-based; settings: in vivo
[37] = Cmax in Beagle dog at 7.85 mg/kg, po; format: ADME, organism-based, Canis lupus familiaris; parameters: dose 7.85 mg/kg, route oral; settings: in vivo
[38] = Solubility in water at pH 2; format: physicochemical
[39] = AUC (0 to infinity) in Sprague-Dawley rat at 10 mg/kg, po; format: ADME, organism-based; parameters: time infinity, dose 10 mg/kg, route oral; settings: plasma
Rattus norvegicus [40] = organism: Rattus norvegicus; assay: Clearance in rat relative to hepatic blood flow; format: ADME, organism-based, Liver; settings: in vivo
Mus musculus [41] = assay: Antidiabetic activity in fasted C57bl/6j mouse assessed as reduction in AUC of glucose at 10 mg/kg, po administered 30 mins prior glucose challenge by oral glucose tolerance test; format: functional, organism-based; parameters: dose 10 mg/kg
Cavia porcellus [42] = assay: Toxicity in guinea pig assessed as change in heart rate at 5 mg/kg, iv; format: organism-based; parameters: dose 5 mg/kg, route intravenous; settings: in vivo
[43] = Cmax in Sprague-Dawley rat at 10 mg/kg, po; format: ADME, organism-based; parameters: dose 10 mg/kg, route oral; settings: in vivo
Mus musculus [44] = assay: Antidiabetic activity in ob/ob mouse assessed as blood glucose AUC at 3 mg/kg administered 60 mins prior glucose challenge by oral glucose tolerance test relative to vehicle treated control; format: functional
Rattus norvegicus [45] = assay: Antidiabetic activity in ZDF rat assessed as blood glucose AUC at 3 mg/kg administered 60 mins prior glucose challenge by oral glucose tolerance test relative to vehicle treated control; format: functional
[46] = AUC (0 to infinity) in cynomolgus monkey at 10 mg/kg, po; format: ADME, organism-based, Macaca fascicularis; parameters: time infinity, dose 10 mg/kg, route oral; settings: plasma
[47] = target: Voltage-gated inwardly rectifying potassium channel KCNH2 (Homo sapiens, UniProt Q12809); assay: Inhibition of human ERG
[48] = Half life in cynomolgus monkey at 10 mg/kg, po; settings: in vivo
Rattus norvegicus [49] = assay: Antidiabetic activity in fasted Sprague-Dawley rat assessed as reduction in AUC of glucose at 30 mg/kg, po administered 30 mins prior glucose challenge by oral glucose tolerance test; format: functional, organism-based; parameters: dose 30 mg/kg
[50] = Permeability from basolateral to apical side of human Caco2 cells; format: ADME, cell-based; settings: Caco-2, read-out: permeability
Cavia porcellus [51] = assay: Toxicity in guinea pig assessed as mean arterial blood pressure change at 5 mg/kg, iv; format: organism-based; parameters: dose 5 mg/kg, route intravenous; settings: in vivo
Canis familiaris [52] = organism: Canis familiaris; assay: Clearance in dog relative to hepatic blood flow; format: ADME, organism-based, Canis lupus familiaris, Liver; settings: in vivo
Rattus norvegicus [53] = assay: Antidiabetic activity in fasted Sprague-Dawley rat assessed as reduction in AUC of glucose at 3 mg/kg, po administered 30 mins prior glucose challenge by oral glucose tolerance test; format: functional, organism-based; parameters: dose 3 mg/kg
Rattus norvegicus [54] = assay: Antidiabetic activity in Sprague-Dawley rat assessed as blood glucose AUC at 3 mg/kg administered 60 mins prior glucose challenge by oral glucose tolerance test relative to vehicle treated control; format: functional
[55] = Half life cynomolgus monkey at 25 to 400 mg administered once daily; format: ADME, organism-based, Macaca fascicularis; settings: in vivo
[56] = Solubility in water; format: physicochemical; settings: buffer
[57] = Solubility in water at low pH; format: physicochemical; settings: buffer

Chain of Cytochrome P450 2C9 (P11712 whole entry): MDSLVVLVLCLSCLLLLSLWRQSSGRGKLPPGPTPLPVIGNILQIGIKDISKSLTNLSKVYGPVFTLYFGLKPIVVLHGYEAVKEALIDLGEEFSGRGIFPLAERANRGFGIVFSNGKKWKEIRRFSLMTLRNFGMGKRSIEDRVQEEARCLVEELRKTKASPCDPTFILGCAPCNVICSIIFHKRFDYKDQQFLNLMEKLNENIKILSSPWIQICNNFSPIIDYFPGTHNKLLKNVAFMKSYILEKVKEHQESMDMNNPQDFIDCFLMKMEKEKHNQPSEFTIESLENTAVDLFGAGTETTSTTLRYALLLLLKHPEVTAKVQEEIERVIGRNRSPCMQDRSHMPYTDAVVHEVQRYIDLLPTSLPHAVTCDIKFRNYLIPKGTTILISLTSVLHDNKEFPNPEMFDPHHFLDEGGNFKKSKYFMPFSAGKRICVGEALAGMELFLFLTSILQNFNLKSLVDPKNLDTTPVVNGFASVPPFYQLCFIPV
Chain of Voltage-gated inwardly rectifying potassium channel KCNH2 (Q12809 whole entry): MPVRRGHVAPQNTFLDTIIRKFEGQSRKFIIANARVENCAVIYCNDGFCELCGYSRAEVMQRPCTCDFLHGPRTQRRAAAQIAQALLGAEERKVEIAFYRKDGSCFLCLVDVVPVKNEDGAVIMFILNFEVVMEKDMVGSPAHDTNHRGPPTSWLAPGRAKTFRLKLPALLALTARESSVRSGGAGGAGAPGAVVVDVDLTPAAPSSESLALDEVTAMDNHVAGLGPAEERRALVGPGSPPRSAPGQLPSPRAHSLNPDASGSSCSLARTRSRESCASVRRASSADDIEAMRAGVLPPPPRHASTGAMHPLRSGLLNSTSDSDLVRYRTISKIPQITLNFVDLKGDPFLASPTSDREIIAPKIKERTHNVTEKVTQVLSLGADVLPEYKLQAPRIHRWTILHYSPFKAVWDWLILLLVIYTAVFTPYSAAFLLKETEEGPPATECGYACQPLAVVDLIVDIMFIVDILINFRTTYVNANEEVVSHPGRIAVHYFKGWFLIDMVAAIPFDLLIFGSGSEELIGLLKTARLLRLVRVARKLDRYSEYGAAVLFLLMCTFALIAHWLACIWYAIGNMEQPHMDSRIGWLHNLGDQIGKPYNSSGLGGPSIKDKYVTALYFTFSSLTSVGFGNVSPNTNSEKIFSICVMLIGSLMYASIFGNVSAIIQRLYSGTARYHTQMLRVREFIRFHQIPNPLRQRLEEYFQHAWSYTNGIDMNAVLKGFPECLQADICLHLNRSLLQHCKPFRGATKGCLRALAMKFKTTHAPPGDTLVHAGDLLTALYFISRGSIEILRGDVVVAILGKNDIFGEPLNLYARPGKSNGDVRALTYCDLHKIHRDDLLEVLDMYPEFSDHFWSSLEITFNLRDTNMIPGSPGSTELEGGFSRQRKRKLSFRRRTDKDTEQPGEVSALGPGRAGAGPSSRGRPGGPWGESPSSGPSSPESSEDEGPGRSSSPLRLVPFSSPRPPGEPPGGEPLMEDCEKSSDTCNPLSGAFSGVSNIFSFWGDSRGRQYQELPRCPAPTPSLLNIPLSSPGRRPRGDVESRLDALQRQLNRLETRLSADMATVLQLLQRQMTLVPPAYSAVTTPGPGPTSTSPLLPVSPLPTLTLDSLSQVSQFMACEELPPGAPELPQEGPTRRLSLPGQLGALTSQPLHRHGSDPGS

Cc1ncccc1Nc1ncnc(OC2CCN(C(=O)OC(C)C)CC2)c1C
solubility at 24 h [1]: 7.7 mg/mL (≈ 20 mM)

Cc1cc(S(C)(=O)=O)ncc1Oc1ncnc(OC2CCN(C(=O)OC(C)C)CC2)c1C
solubility at 24 h [2]: 13.1 mg/mL (≈ 28.2 mM)

COc1c(Nc2ccc(S(C)(=O)=O)nc2C)ncnc1OC1CCN(C(=O)OC(C)C)CC1 [ADP-597]
MRT [3]: 10.9 h | Tmax [4]: 1 h | MRT [5]: 6.8 h | Tmax [6]: 2 h | Activity (Canis familiaris [7]): Non-toxic | AUC(0-inf) [8]: 320000 ng·h/mL | MRT [9]: 7.9 h | Drug metabolism (Rattus norvegicus [10]): Active | half-life [11]: 3 h | Drug uptake (Rattus norvegicus [12]): 482 ng/mL | solubility [13]: 0.11 mg/mL (≈ 0.229 mM) | Drug uptake (Cynomolgus monkey [14]): 112 ng/mL | half-life [15]: > 1 h | half-life [16]: 7 h | Drug metabolism (Rattus norvegicus [17]): Active | half-life [18]: > 1 h | clearance [19]: 9.67 mL/min/kg | Tmax [20]: 6 h | clearance [21]: 1.83 mL/min/kg | Activity (Cavia porcellus [22]): Non-toxic | clearance [23]: 0.667 mL/min/kg | Papp A→B [24]: 26 ×10⁻⁶ cm/s | Activity (Rattus norvegicus [25]): Non-toxic | Tmax [26]: 8 h | Cmax [27]: 25800 ng/mL | Drug uptake (Rattus norvegicus [28]): 1592 ng/mL | MRT [29]: 8.4 h | Cmax [30]: 4800 ng/mL | Activity (Cynomolgus monkey [31]): 82.8% | IC50 (Cytochrome P450 2C9): 8 µM | AUC(0-inf) [32]: 43700 ng·h/mL | solubility at 24 h [2]: 33 mg/mL (≈ 68.8 mM) | Activity (Mus musculus [33]): Active | half-life [34]: 5.9 h | half-life (in vivo): 10.9 h | half-life [35]: 4.3 h | Drug metabolism (Rattus norvegicus [36]): Active | Cmax [37]: 1980 ng/mL | solubility [38]: 0.31 mg/mL (≈ 0.646 mM) | AUC(0-inf) [39]: 12500 ng·h/mL | CL (Rattus norvegicus [40]): 16% | Activity (Mus musculus [41]): Active | Activity (Cavia porcellus [42]): Non-toxic | Cmax [43]: 1390 ng/mL | Activity (Mus musculus [44]): 78.4% | Activity (Rattus norvegicus [45]): 72.8% | AUC(0-inf) [46]: 64200 ng·h/mL | IC50 [47]: > 10 µM | half-life [48]: 4.4 h | Activity (Rattus norvegicus [49]): Active | Papp B→A [50]: 15 ×10⁻⁶ cm/s | Activity (Cavia porcellus [51]): Non-toxic | CL (Canis familiaris [52]): 16% | Activity (Rattus norvegicus [53]): Active | Activity (Rattus norvegicus [54]): 85.1%

Cc1c(Oc2cncc(F)c2)ncnc1OC1CCN(C(=O)OC(C)C)CC1
solubility at 24 h [2]: 5.1 mg/mL (≈ 13.1 mM)

Cc1nc(S(C)(=O)=O)ccc1Nc1ncnc(OC2CCN(C(=O)OC(C)C)CC2)c1C1CC1
solubility at 24 h [2]: 17.7 mg/mL (≈ 36.2 mM)

Cc1nc(S(C)(=O)=O)ccc1Nc1ncnc(OC2CCN(C(=O)OC(C)C)CC2)c1C(F)F
solubility at 24 h [2]: 17.3 mg/mL (≈ 34.6 mM)

Cc1c(Nc2ccc(S(C)(=O)=O)cc2F)ncnc1OC1CCN(C(=O)OC(C)C)CC1
solubility at 24 h [1]: 16.7 mg/mL (≈ 35.8 mM)

CC(CO)OC(=O)N1CCC(Oc2ncnc3c2cnn3-c2ccc(S(C)(=O)=O)cc2F)CC1 (stereo not drawn)
half-life [55]: 41 h

Cc1ccc(Oc2ncnc(OC3CCN(C(=O)OC(C)C)CC3)c2C)c(C)n1
solubility at 24 h [2]: 13.2 mg/mL (≈ 33.1 mM)

Cc1nc(S(C)(=O)=O)ccc1Nc1ncnc(OC2CCN(C(=O)OC(C)C)CC2)c1C
solubility [56]: Insoluble | solubility [57]: soluble | IC50 (Cytochrome P450 2C9): 2.5 µM | solubility at 24 h [2]: 24 mg/mL (≈ 51.8 mM)

Cc1ccncc1Oc1ncnc(OC2CCN(C(=O)OC(C)C)CC2)c1C
solubility at 24 h [1]: 8.5 mg/mL (≈ 22 mM)
